Source: patent US9549917B2, “Heterocyclic-substituted benzofuran derivatives and methods of use thereof for the treatment of viral diseases” (priority 2011, dated 2017)

How the values were obtained:
[1] = test system: HCV replicon genotype 1a; assay: HCV replicon assay, genotype 1a (cell ELISA for NS3/4A); assay type: cell-based; conditions: Hepatitis C virus, 96 h, read-out: 1a IC50 (nM)
Procedure: (§1) Measurement of inhibition by compounds was performed using the HCV replicon system. Several different replicons encoding different HCV genotypes or mutations were used. In addition, potency measurements were made using different formats of the replicon assay, including different ways of measurements and different plating formats. See Jan M. Vrolijk et al., A replicons-based bioassay for the measurement of interferons in patients with chronic hepatitis C, 110 J. V[…] 201 (2003); Steven S. Carroll et al., Inhibition of Hepatitis C Virus RNA Replication by 2′-Modified Nucleoside Analogs, 278(14) J. BIOLOGICAL CHEMISTRY 11979 (2003). However, the underlying principles are common to all of these determinations, and are outlined below.
(§2) Stable neomycin phosphotransferase encoding replicons-harboring cell lines were used, so all cell lines were maintained under G418 selection prior to the assay. Potency was determined using a cell ELISA assay with an antibody to the replicons encoded NS3/4a protease. See Caterina Trozzi et al., In Vitro Selection and Characterization of Hepatitis C Virus Serine Protease Variants Resistant to an Active-Site Peptide Inhibitor, 77(6) J. Virol. 3669 (2003). To initiate an assay, replicon cells were plated in the presence of a dilution series of test compound in the absence of G418. Typically, the assays were performed in a 96-well plate formate for manual operation, or a 384-well plate format for automated assay. Replicon cells and compound were incubated for 96 hours. At the end of the assay, cells were washed free of media and compound, and the cells were then lysed. RNA was quantified indirectly through detection of replicon-encoded NS3/4A protein levels, through an ELISA-based assay with an antibody specific for NS3/4A. IC50 determinations were calculated as a percentage of a DMSO control by fitting the data to a four-parameter fit function and the data obtained is provided in the table below.
(§3) Data for selected compounds of the present invention was obtained for genotypes 1a and 1b using this method and is provided in the table below: […]

[2] = test system: HCV replicon genotype 1b; assay: HCV replicon assay, genotype 1b (cell ELISA for NS3/4A); assay type: cell-based; conditions: Hepatitis C virus, 96 h, read-out: 1b IC50 (nM)
Procedure: as §1, §2, §3

Structure (SMILES) | IC50 [1] [nM] | IC50 [2] [nM]
CNC(=O)c1c(-c2ccc(F)cc2)oc2cc(N(C)S(C)(=O)=O)c(-c3cncc(-c4nc5c(s4)C4CCC5C4)c3)cc12 (stereo not shown) [Compound 182] | 4.4 | 4.3
CNC(=O)c1c(-c2ccc(F)cc2)oc2cc(N(C)S(C)(=O)=O)c(-c3cnnc(N4Cc5cccc(F)c5C4)c3)cc12 [Compound 280] | 1.2 | 1.4
CNC(=O)c1c(-c2ccc(F)cc2)oc2cc(N(C)S(C)(=O)=O)c(-c3cnnc(-c4cc5c(F)cccc5n4CCO)c3)cc12 [Compound 277] | 7.4 | 6.7
CNC(=O)c1c(-c2ccc(F)cc2)oc2cc(N(C)S(C)(=O)=O)c(-c3cc(-c4nc5ccccc5o4)cnn3)cc12 [Compound 271] | 14 | 10
CNC(=O)c1c(-c2ccc(F)cc2)oc2cc(N(C)S(C)(=O)=O)c(-c3cc(-c4cc5c(F)cccc5[nH]4)ncc3OC)cc12 [Compound 293] | 131 | 41
CNC(=O)c1c(-c2ccc(F)cc2)oc2cc(N(CCCF)S(C)(=O)=O)c(-c3cncc(-c4cc5ccccc5[nH]4)c3)cc12 [Compound 244] | 2.7 | 4.7
CNC(=O)c1c(-c2ccc(F)cc2)oc2cc(N(C)S(C)(=O)=O)c(-c3cc(-c4cc5c(C#N)cccc5[nH]4)nnc3C)cc12 [Compound 266] | 3.2 | 3
CNC(=O)c1c(-c2ccc(F)cc2)oc2cc(N(C)S(C)(=O)=O)c(-c3ccc(-c4nc5c(F)cccc5o4)s3)cc12 [Compound 157] | 0.9 | 1.5
CNC(=O)c1c(-c2ccc(F)cc2)oc2cc(N(C)S(C)(=O)=O)c(-c3cc(-c4cc5c(F)cccc5[nH]4)nnc3C)cc12 [Compound 268] | 5.3 | 6.1
CNC(=O)c1c(-c2ccc(F)cc2)oc2cc(N(C)S(C)(=O)=O)c(-c3cncc(-c4ccc5cc(C(F)(F)F)cnc5n4)c3)cc12 [Compound 180] | 5.4 | 2.3
CNC(=O)c1c(-c2ccc(F)cc2)oc2cc(N(C)S(C)(=O)=O)c(-c3ncc(OC)c(-c4cc5c(C#N)cccc5[nH]4)n3)cc12 [Compound 214] | 33 | 9.9
CNC(=O)c1c(-c2ccc(F)cc2)oc2cc(N(C)S(C)(=O)=O)c(-c3cncc(-c4cc5c(F)cccc5[nH]4)n3)cc12 [Compound 121] | 0.8 | 1.2
CNC(=O)c1c(-c2ccc(F)cc2)oc2cc(N(C)S(C)(=O)=O)c(-c3cnnc(-c4cc5cccnc5n4C)c3)cc12 [Compound 284] | 6 | 2.7
CNC(=O)c1c(-c2ccc(F)cc2)oc2cc(N(C)S(C)(=O)=O)c(-c3cncc(-c4nc5c(F)cccc5o4)c3)cc12 [Compound 2] | 0.3 | 0.8
CNC(=O)c1c(-c2ccc(F)cc2)oc2cc(N(C)S(C)(=O)=O)c(-c3cnnc(-c4nc5ccccc5s4)c3)cc12 [Compound 287] | 3.2 | 5.1
CNC(=O)c1c(-c2ccc(F)cc2)oc2cc(N(C)S(C)(=O)=O)c(-c3cc(-c4cc5c(F)cccc5[nH]4)cnn3)cc12 [Compound 263] | 3.2 | 2.4
CNC(=O)c1c(-c2ccc(F)cc2)oc2ccc(-c3cc(-c4cc5c(F)cccc5[nH]4)nnc3C)cc12 [Compound 270] | 42 | 36
CNC(=O)c1c(-c2ccc(F)cc2)oc2cc(N(C)S(C)(=O)=O)c(-c3cc(-c4nc5c(o4)CCCC5(F)F)ccn3)cc12 [Compound 95] | 0.9 | 1.1

Structure (SMILES) | IC50 [1] [nM] | IC50 [2] [nM]
CNC(=O)c1c(-c2ccc(F)cc2)oc2cc(N(C)S(C)(=O)=O)c(-c3ccc(OC)c(-c4cc5ncccc5[nH]4)n3)cc12 [Compound 211] | 8.8 | 2.5
CNC(=O)c1c(-c2ccc(F)cc2)oc2cc(N(C)S(C)(=O)=O)c(-c3c[nH]c(=O)c(-c4nc5c(F)cccc5o4)c3)cc12 [Compound 159] | 0.8 | 1.3
CNC(=O)c1c(-c2ccc(F)cc2)oc2cc(N(C)S(C)(=O)=O)c(-c3cnnc(N4Cc5c(F)cccc5C4=O)c3)cc12 [Compound 281] | 22.3 | 4.8
CNC(=O)c1c(-c2ccc(F)cc2)oc2cc(N3CCCC3=O)c(-c3cncc(-c4nc5c(s4)CCCC5(F)F)c3)cc12 [Compound 155, 5-(5-(4,4-difluoro-4,5,6,7-tetrahydrobenzo[d]thiazol-2-yl)pyridin-3-yl)-2-(4-fluorophenyl)-N-methyl-6-(2-oxopyrrolidin-1-yl)benzofuran-3-carboxamide] | 2.9 | 1
CNC(=O)c1c(-c2ccc(F)cc2)oc2cc(N(C)S(C)(=O)=O)c(-c3cnc(OC)c(-c4nc5c(o4)CCCC5(F)F)c3)cc12 [Compound 94] | 0.8 | 1.9
CNC(=O)c1c(-c2ccc(F)cc2)oc2cc(N(C)S(C)(=O)=O)c(-c3ccc(OC)c(-c4cc5cccc(C#N)c5[nH]4)n3)cc12 [Compound 208] | 27 | 7.2
CNC(=O)c1c(-c2ccc(F)cc2)oc2cc(N(C)S(C)(=O)=O)c(-c3cc(-c4cc5ccccc5[nH]4)nc(OC)n3)cc12 [Compound 150, 5-(6-(1H-indol-2-yl)-2-methoxypyrimidin-4-yl)-2-(4-fluorophenyl)-N-methyl-6-(N-methylmethylsulfonamido)benzofuran-3-carboxamide] | 3.2 | 5.1
CNC(=O)c1c(-c2ccc(F)cc2)oc2cc(N(C)S(C)(=O)=O)c(-c3cnnc(-c4cc5c(OC)cccc5[nH]4)c3)cc12 [Compound 282] | 3.3 | 1.8
CNC(=O)c1c(-c2ccc(F)cc2)oc2cc(N(C)S(C)(=O)=O)c(-c3cncc(-c4cc5ccncc5s4)c3)cc12 [Compound 179] | 8.2 | 5.1
CNC(=O)c1c(-c2ccc(F)cc2)oc2cc(N(CC(F)F)S(C)(=O)=O)c(-c3cc(-c4nc5ncccc5o4)ccn3)cc12 [Compound 170] | 27 | 5.1
CNC(=O)c1c(-c2ccc(F)cc2)oc2cc(N(C)S(C)(=O)=O)c(-c3cc(-c4[nH]c5ccccc5c4C)cnn3)cc12 [Compound 289] | 54 | 22
CNC(=O)c1c(-c2ccc(F)cc2)oc2cc(N(C)S(C)(=O)=O)c(-c3cnc(OC)c(-c4cc5c(C#N)cccc5[nH]4)n3)cc12 [Compound 225] | 4.7 | 7
CNC(=O)c1c(-c2ccc(F)cc2)nn2cc(N(C)S(C)(=O)=O)c(-c3nccc(-c4cc5ccccc5[nH]4)n3)cc12 [Compound 210] | 11 | 4.7
CNC(=O)c1c(-c2ccc(F)cc2)oc2cc(N(C)S(C)(=O)=O)c(-c3cc(-c4cc5c(C#N)cccc5[nH]4)cnn3)cc12 [Compound 230] | 1.4 | 1.9
CNC(=O)c1c(-c2ccc(F)cc2)oc2cc(N(C)S(C)(=O)=O)c(-c3cc(N4Cc5cccc(F)c5C4)ncc3Cl)cc12 [Compound 291] | 4.8 | 8
CNC(=O)c1c(-c2ccc(F)cc2)oc2cc(N(C)S(C)(=O)=O)c(-c3nc(-c4cc5c(F)cccc5[nH]4)ns3)cc12 [Compound 258] | 2.6 | 2.5
CNC(=O)c1c(-c2ccc(F)cc2)oc2cc(N(C)S(C)(=O)=O)c(-c3cc(-c4cc5ccccc5[nH]4)nc(C#N)n3)cc12 [Compound 151] | 7.7 | 3.7
